≈ marks a conversion by molar mass, not a printed value.
How the values were obtained:
Format in all cases: functional
Escherichia coli [1] = assay: In vitro antibacterial activity was determined
Escherichia coli [2] = assay: In vitro inhibition of protein translation in Escherichia coli
Escherichia coli [3] = assay: Inhibitory concentration of compound against Escherichia coli in vitro protein translation
[4] = Inhibition of L11BD (L11 binding domain) 58-mer methylation of A1067 at 50 uM
Nucleic Acid = assay: % Inhibition of rRNA methylation at 50 uM

| SMILES | MIC95 (Escherichia coli [1]) [µg/mL] | Inhibition (Escherichia coli [2]) [%] | IC50 (Escherichia coli [3]) [nM] | inhibition [4] [%] | inhibition (Nucleic Acid) [%] |
| --- | --- | --- | --- | --- | --- |
| C=C(NC(=O)C(=C)NC(=O)c1csc(C2=N[C@@H]3c4csc(n4)[C@H]4NC(=O)c5csc(n5)[C@H]([C@](C)(O)[C@@H](C)O)NC(=O)[C@H]5CSC(=N5)/C(=C/C)NC(=O)[C@H]([C@@H](C)O)NC(=O)c5csc(n5)[C@]3(CC2)NC(=O)[C@H](C)NC(=O)C(=C)NC(=O)[C@H](C)NC(=O)[C@H]([C@@H](C)CC)N[C@@H]2C=Cc3c([C@H](C)O)cc(nc3[C@H]2O)C(=O)O[C@@H]4C)n1)C(N)=O [THIOSTREPTON] | 0.015 (≈ 0.00901 µM) | 98 | 100 | – | – |
| C[C@H](O)[C@@H](NC(=O)[C@@H](NC(=O)c1csc(-c2ccccc2)n1)[C@@H](C)O)c1nc(C(=O)O)cs1 | > 200 | – | – | 35 | 27 |
| C[C@H](O)[C@H](NC(=O)c1csc(-c2ccccc2)n1)c1nc(C(=O)N2CCN(CCOCCO)CC2)cs1 | > 200 | – | – | 59 | – |
| CC(C)[C@@H](NC(=O)[C@@H](NC(=O)c1csc(-c2ccccc2)n1)[C@@H](C)O)c1nc(C(=O)NCCCO)cs1 | > 200 | 48 | – | 37 | 37 |
| CC[C@@H](NC(=O)[C@@H](NC(=O)c1csc(-c2ccccc2)n1)[C@@H](C)O)c1nc(C(=O)NCc2ccc3c(c2)OCO3)cs1 | > 200 | 31 | – | 28 | 13 |
| CC(C)[C@@H](NC(=O)[C@@H](NC(=O)c1csc(-c2ccccc2)n1)[C@@H](C)O)c1nc(C(=O)NCc2ccc3c(c2)OCO3)cs1 | > 200 | 16 | – | 24 | 20 |

— ChEMBL document CHEMBL1145726, “Structure-based design of agents targeting the bacterial ribosome” (Bioorg Med Chem Lett, 2003)
